Read-outs that look alike come from different tables or passages of the source.
Tests used:
[1] = mice; cited from earlier work
[2] = Non-model pharmacokinetics in mice; conditions: base 20 mg/kg
[3] = rat, in vivo, 20 mg/kg
[4] = mouse, in vivo, 20 mg/kg
generalized tuberculosis = conditions: doses 10 mg/kg, after 60 days of treatment, test animals; cited from earlier work
[5] = rabbit, in vivo, 20 mg/kg
Solubility = assay type: physicochemical; conditions: water and organic solvents
Experimental: 4,62 g (0,005 g/moll) of 3-(4-cinnamyl-1-piperazinyl)-iminomethyl rifamycin SV is suspended in 40 ml methanol and 0,1 g sodium ascorbate dissolved in 1 ml water is added. To the obtained suspension 0,9 ml of 30% methanol solution of sodium methylate (equimolar quantity) is added. The suspension immediately turns into a solution because of the formation of the sodium salt. The reaction mixture is filtered to remove the unsolved sediment of sodium ascorbate, and the solvent is concentratrated in vacuum and dried to give the soduim salt as a dark-red solid powder. This product has high purity and the yield is practically quantitative.

[6] = Stability of water solutions; assay type: physicochemical
[7] = system: Gram-positive microorganisms including aerobic, anaerobic and Mycobacterium (typical and atypical); assay: In vitro antibacterial activity; assay type: cell-based; conditions: in comparison with the initial compound T-9

Compound	acute toxicity [1] [mg/kg]	T1/2 ([2]; p.o) [h]	AUC [3] [µg·h/mL]	Cmax [3] [ng/mL]	T1/2 [3] [h]	Tmax [3] [h]	AUC [4] [µg·h/mL]	CL [4] [mL·min/kg]	Cmax [4] [ng/mL]	Tmax [4] [h]	therapeutic activity in generalized tuberculosis (generalized tuberculosis)	AUC [5] [µg·h/mL]	Cmax [5] [ng/mL]	T1/2 [5] [h]	Tmax [5] [h]	solubility (Solubility)	stability of the obtained water solutions [6]	T1/2 ([2]; i.v) [h]	antibacterial activity in vitro [7]
CO[C@H]1/C=C/O[C@@]2(C)Oc3c(C)c(O)c4c(O)c(c(/C=N/N5CCN(C/C=C/c6ccccc6)CC5)c(O)c4c3C2=O)NC(=O)/C(C)=C\C=C\[C@H](C)[C@H](O)[C@@H](C)[C@@H](O)[C@@H](C)[C@H](OC(C)=O)[C@@H]1C [T-9, 3-(4-cinnamyl-1-piperazinyl)-iminomethyl rifamycin SV, reference compound]	4000	33.70	543	8200	21.18	6	735	0.092	12400	8	full organ sterilization	233	2750	56.63	2	unsoluble			
sodium salt of 3-(4-cinnamyl-1-piperazinyl)-iminomethyl rifamycin SV [T-11]		38.02	671	9200	20.04	2		0.092				299	2710	28.04	2	soluble in water, methanol, ethanol, acetone and unsoluble in isopropanol	good stability	39.08	good antibacterial activity
CO[C@H]1/C=C/O[C@@]2(C)Oc3c(C)c(O)c4c(O)c(c(/C=N/N5CCN(C)CC5)c(O)c4c3C2=O)NC(=O)/C(C)=C\C=C\[C@H](C)[C@H](O)[C@@H](C)[C@@H](O)[C@@H](C)[C@H](OC(C)=O)[C@@H]1C [Rifampicin]	1500																		
